From ChEMBL document CHEMBL5303304, “EUbOPEN Chemogenomics Library - IncuCyte” (2023)

Tests used:
Format in all cases: toxicity, cell-based
U2OS = test: Incucyte cell viability with U2OS; conditions: human, 10 µM, compound concentration 10 uM
Fibroblast = test: Incucyte cell viability with human fibroblast; conditions: 10 µM, compound concentration 10 uM
HEK-293T = test: Incucyte cell viability with HEK293T; conditions: human, 10 µM, compound concentration 10 uM
Also: unitless GR value; below 1 slowed growth and below 0 cell loss.

Structure (SMILES) | Growth Rate (U2OS; 12 h, replicate number 1) | Growth Rate (U2OS; 18 h, replicate number 1) | Growth Rate (U2OS; 18 h, replicate number 2) | Growth Rate (U2OS; 24 h, replicate number 1) | Growth Rate (U2OS; 24 h, replicate number 2) | Growth Rate (Fibroblast; 0 h, replicate number 1) | Growth Rate (Fibroblast; 12 h, replicate number 1) | Growth Rate (Fibroblast; 12 h, replicate number 2) | Growth Rate (Fibroblast; 18 h, replicate number 1) | Growth Rate (Fibroblast; 18 h, replicate number 2) | Growth Rate (Fibroblast; 24 h, replicate number 1) | Growth Rate (Fibroblast; 24 h, replicate number 2) | Growth Rate (HEK-293T; 0 h, replicate number 1) | Growth Rate (HEK-293T; 0 h, replicate number 2) | Growth Rate (HEK-293T; 12 h, replicate number 2) | Growth Rate (HEK-293T; 18 h, replicate number 1) | Growth Rate (HEK-293T; 18 h, replicate number 2) | Growth Rate (HEK-293T; 24 h, replicate number 1) | Growth Rate (HEK-293T; 24 h, replicate number 2) | Growth Rate (U2OS; 0 h, replicate number 1) | further results
CNc1nc(-c2ccc3c(N)n[nH]c3c2)cc(N2C[C@@H](C(=O)NC3CCCCC3)CC[C@H]2C)n1 | 0.7 | 0.49 | 0.82 | 0.51 | 0.72 | -0.99 | 0.62 | 0.96 | 0.38 | 0.7 | 0.22 | 0.64 | -1 | -0.02 | 0.66 | 0.8 | 0.55 | 0.72 | 0.55 |  | Growth Rate (U2OS; 12 h, replicate number 2): 0.8; Growth Rate (HEK-293T; 12 h, replicate number 1): 0.89
CCn1c(-c2nonc2N)nc2cncc(C(=O)N3CC[C@H](N)C3)c21.Cl |  |  | 0.88 |  | 0.79 | -1 |  |  |  |  |  |  | -0.71 | -0.15 |  |  |  |  |  | -1 | Growth Rate (Fibroblast; 0 h, replicate number 2): -0.88
CCc1nc(-c2cccc(C)c2)c(-c2ccncc2)s1 |  |  |  |  |  | -0.98 | 0.95 |  |  |  |  |  | -0.67 |  |  | 0.99 |  |  |  |  | Growth Rate (U2OS; 0 h, replicate number 2): 0.65; Growth Rate (U2OS; 6 h, replicate number 2): 0.83; Growth Rate (Fibroblast; 0 h, replicate number 2): 0.64; Growth Rate (Fibroblast; 6 h, replicate number 2): 1; Growth Rate (HEK-293T; 6 h, replicate number 2): 0.9
OCC1OC(n2cnc3cc(Cl)c(Cl)cc32)C(O)C1O (centres undefined) | 0.53 | 0.33 | 0.94 |  |  | -0.9 |  | 0.42 |  | 0.86 | 0.84 | 0.78 | 0.64 | 0.84 | 0.83 | 0.48 | 0.74 | 0.55 | 0.82 |  | Growth Rate (U2OS; 0 h, replicate number 2): 0.83; Growth Rate (U2OS; 6 h, replicate number 2): 0.95; Growth Rate (Fibroblast; 0 h, replicate number 2): -0.97; Growth Rate (Fibroblast; 6 h, replicate number 2): 0.4; Growth Rate (HEK-293T; 6 h, replicate number 1): 0.33; Growth Rate (HEK-293T; 6 h, replicate number 2): 0.29; Growth Rate (HEK-293T; 12 h, replicate number 1): 0.43
NS(=O)(=O)c1ccc(Nc2nc(OCC3CCCCC3)c3nc[nH]c3n2)cc1 | 0.53 | 0.8 | 0.94 | 0.87 | 0.93 | -1 |  | 0.55 |  | 0.56 |  |  | 0.76 |  | 0.98 |  | 0.9 |  | 0.82 | -0.84 | Growth Rate (U2OS; 6 h, replicate number 1): -0.3
CNS(=O)(=O)c1ccc(N(C)C)c(Nc2ncnc3cc(OC)c(OC)cc23)c1 | 0.84 | 0.85 | 0.39 | 0.8 | 0.71 | -1 |  | 0.32 | 0.69 | 0.4 | 0.51 | 0.29 | -0.66 | 0.17 | 0.6 | 0.88 | 0.42 | 0.79 | 0.47 | -1 | Growth Rate (U2OS; 6 h, replicate number 2): 0.65; Growth Rate (U2OS; 12 h, replicate number 2): 0.6; Growth Rate (HEK-293T; 6 h, replicate number 2): 0.92
Cn1cc(-c2ccc(N(C(=O)NCc3ccccc3)[C@H]3CC[C@H](Nc4ccc(C#N)cn4)CC3)cc2)ccc1=O | 0.28 | 0.12 | 0.06 | -0.14 | -0.05 | 0.84 | 0.45 | -0.01 | 0.17 | -0.04 | 0.16 | -0.08 | -0.73 | 0.96 | -0.56 | -0.21 | -0.48 | -0.14 | -0.39 |  | Growth Rate (U2OS; 6 h, replicate number 1): 0.45; Growth Rate (U2OS; 6 h, replicate number 2): 0.58; Growth Rate (Fibroblast; 0 h, replicate number 2): -0.77; Growth Rate (Fibroblast; 6 h, replicate number 1): 0.65; Growth Rate (Fibroblast; 6 h, replicate number 2): 0.48; Growth Rate (HEK-293T; 6 h, replicate number 1): -0.2; Growth Rate (HEK-293T; 6 h, replicate number 2): -0.56; Growth Rate (HEK-293T; 12 h, replicate number 1): -0.28
CNC(=O)c1c(F)cccc1Nc1nc(Nc2cc3c(cc2OC)CCN3C(=O)CN(C)C)nc2[nH]ccc12 | 0.02 | -0.42 | -0.11 | -0.45 | -0.14 | -0.92 | 0.04 | -0.65 | -0.23 | -0.62 | -0.23 | -0.6 | -1 | 0.35 | 0.75 |  | -0.03 |  | -0.14 | -0.99 | Growth Rate (U2OS; 0 h, replicate number 2): -1; Growth Rate (U2OS; 12 h, replicate number 2): 0.29; Growth Rate (Fibroblast; 6 h, replicate number 1): 0.23; Growth Rate (Fibroblast; 6 h, replicate number 2): -0.71
